{
  "source": "patent US20090258878A1",
  "about": "“TRIAZINE DERIVATIVE COMPOUND AND COMPOSITION FOR TREATING CANCER […]” (priority 2006, published 2009)",
  "key": {"[1]": {"test_system": "MCF-7 breast cancer cell line", "settings": "for growth inhibition effect on cell (FIG. 1): 2 days", "experimental": "2×10^5 MCF-7 cells were respectively distributed into each 6 well plates and grown. Thereafter, Dan-BC1, Dan-BC2 and Dan-BC3 compounds were diluted to be dose concentration of 10, 50 and 100 μM, and after treating them into cancers for 2 days according to the concentration, they were compared by measuring the cell viability with those of drug-untreated group."}, "[2]": {"test_system": "MCF-7 tumor cells", "settings": "for Height of breast cancer mass / Major Axis of breast cancer mass / Minor Axis of breast cancer mass: nude mouse; for in vivo anticancer effect regarding breast cancer formed in nude mouse: two administrations of 500 μM, vs negative control mass size", "experimental": "Weekly administration of experiment compound was initiated 2 days after measurement of tumor size. The concentration of the first administration was 500 μM, respectively."}, "[3]": {"test_system": "breast cancers naturally formed in female mouse transformed to form cancer (HCCR-1)", "settings": "for anticancer effect against breast cancer formed in transformed mouse in vivo / breast cancer after one administration: 100 μM; for anti-cancer effect on transformed animal model, rank order (FIG. 11) / formation of cancer again at second injection: 100 μM weekly; for formation of cancer again at second injection: transformed mouse; for breast cancer after one administration: transformed mouse with naturally formed breast cancer", "experimental": "Anticancer effect of Dan-BC1, Dan-BC2 and Dan-BC3 according to the present invention was assessed using the mouse transformed with human proto-oncogene causing cancer which was over-expressed in mammal.\nSince the cell line used for the transformed mouse has capacity for forming tumor, it forms a carcinoma such as palpable tumor when transplanted into mammal. Cell line used in the present experiment produces a large quantity of HCCR-1 protein by overexpressing human proto-oncogene (hereafter, HCCR-1), which protein interacts with D52 protein (GenBank Reg. No. NM003288) as reported as being related to cancer (Byrne, J. A. et al., Cancer Res., 55, 2896-2903 (1995); and Bryne, J. A. et al., Oncogene, 16, 873-881 (1998) reference), activates protein Kinases C and Telomerase, incapacitates the function of controlling cell cycle checkpoint, and transforms into malignant tumor though the course of lowering the expression of egr-1 gene."}, "[4]": {"settings": "1 week after First Administration, 500 μM"}, "[5]": {"settings": "1 day before First Administration"}, "[6]": {"settings": "the day of First Administration, 500 μM"}},
  "note": "Like-named read-outs stand apart in the source and are kept apart here.",
  "data": [
    {"smiles": "CCCCNc1nc(NCc2ccncc2)nc(NCc2ccc(C(=O)NCCOCCOCCNC(=O)c3ccccc3)cc2)n1", "note": "[Dan-BC2]", "values": [
      {"measurement": "growth inhibition effect on cell (FIG. 1)", "setting": "[1]; 10 μM", "result": "weak growth inhibition effect on cell"},
      {"measurement": "growth inhibition effect on cell (FIG. 1)", "setting": "[1]; 50 μM", "result": "no significant growth inhibition effect on cell"},
      {"measurement": "cells survived compared with cells without administration", "setting": "[1]; 100 μM, 12 hours", "result": "about 75%"},
      {"measurement": "cells survived compared with cells without administration", "setting": "[1]; 100 μM, 24 hours", "result": "about 49%"},
      {"measurement": "cells survived compared with cells without administration", "setting": "[1]; 100 μM, 36 hours", "result": "about 33%"},
      {"measurement": "growth inhibition effect on cell (FIG. 1)", "setting": "[1]; 100 μM", "result": "an extinct effect on cell was apparent to the naked eye"},
      {"measurement": "cells survived compared with cells without administration", "setting": "[1]; 100 μM, 48 hours", "result": 20, "unit": "%"},
      {"measurement": "extinction effect on breast cancer cell in nude mouse, rank order (FIG. 7)", "setting": "[2]; 500 μM", "result": "high in case of Dan-BC1, Dan-BC3 compound, and Dan-BC2 compound in that order"},
      {"measurement": "Height of breast cancer mass", "setting": "[2]; [4]", "result": 3, "unit": "mm"},
      {"measurement": "Major Axis of breast cancer mass", "setting": "[2]; [4]", "result": 15, "unit": "mm"},
      {"measurement": "Minor Axis of breast cancer mass", "setting": "[2]; [4]", "result": 10, "unit": "mm"},
      {"measurement": "Height of breast cancer mass", "setting": "[2]; [5]", "result": 2, "unit": "mm"},
      {"measurement": "Major Axis of breast cancer mass", "setting": "[2]; [5]", "result": 4, "unit": "mm"},
      {"measurement": "Minor Axis of breast cancer mass", "setting": "[2]; [5]", "result": 2, "unit": "mm"},
      {"measurement": "Height of breast cancer mass", "setting": "[2]; [6]", "result": 5, "unit": "mm"},
      {"measurement": "Major Axis of breast cancer mass", "setting": "[2]; [6]", "result": 12, "unit": "mm"},
      {"measurement": "Minor Axis of breast cancer mass", "setting": "[2]; [6]", "result": 10, "unit": "mm"},
      {"measurement": "in vivo anticancer effect regarding breast cancer formed in nude mouse", "setting": "[2]", "result": "strong in vivo anticancer effect"},
      {"measurement": "anticancer effect against breast cancer formed in transformed mouse in vivo", "setting": "[3]", "result": "showed anticancer effect"},
      {"measurement": "anti-cancer effect on transformed animal model, rank order (FIG. 11)", "setting": "[3]", "result": "as an order of the next Dan-BC3, and Dan-BC2"},
      {"measurement": "formation of cancer again at second injection", "setting": "[3]", "result": "formation of cancer was induced again at the time of the 2nd injection"},
      {"measurement": "breast cancer after one administration", "setting": "[3]", "result": "breast cancer became extinct"}
    ]},
    {"smiles": "CCCCNc1nc(NCc2ccc(C(=O)NCCOCCOCCNC(=O)c3ccccc3)cc2)nc(NC(CC)CC)n1", "note": "[Dan-BC3]", "values": [
      {"measurement": "growth inhibition effect on cell (FIG. 1)", "setting": "[1]; 10 μM", "result": "weak growth inhibition effect on cell"},
      {"measurement": "growth inhibition effect on cell (FIG. 1)", "setting": "[1]; 50 μM", "result": "no significant growth inhibition effect on cell"},
      {"measurement": "cells survived compared with cells without administration", "setting": "[1]; 100 μM, 12 hours", "result": "about 60%"},
      {"measurement": "cells survived compared with cells without administration", "setting": "[1]; 100 μM, 24 hours", "result": "about 37%"},
      {"measurement": "cells survived compared with cells without administration", "setting": "[1]; 100 μM, 36 hours", "result": "about 7%"},
      {"measurement": "growth inhibition effect on cell (FIG. 1)", "setting": "[1]; 100 μM", "result": "an extinct effect on cell was apparent to the naked eye"},
      {"measurement": "cells survived compared with cells without administration", "setting": "[1]; 100 μM, 48 hours", "result": "all cells reached extinct"},
      {"measurement": "extinction effect on breast cancer cell in nude mouse, rank order (FIG. 7)", "setting": "[2]; 500 μM", "result": "high in case of Dan-BC1, Dan-BC3 compound, and Dan-BC2 compound in that order"},
      {"measurement": "Height of breast cancer mass", "setting": "[2]; [4]", "result": 2, "unit": "mm"},
      {"measurement": "Major Axis of breast cancer mass", "setting": "[2]; [4]", "result": 15, "unit": "mm"},
      {"measurement": "Minor Axis of breast cancer mass", "setting": "[2]; [4]", "result": 10, "unit": "mm"},
      {"measurement": "Height of breast cancer mass", "setting": "[2]; [5]", "result": 2, "unit": "mm"},
      {"measurement": "Major Axis of breast cancer mass", "setting": "[2]; [5]", "result": 4, "unit": "mm"},
      {"measurement": "Minor Axis of breast cancer mass", "setting": "[2]; [5]", "result": 2, "unit": "mm"},
      {"measurement": "Height of breast cancer mass", "setting": "[2]; [6]", "result": 5, "unit": "mm"},
      {"measurement": "Major Axis of breast cancer mass", "setting": "[2]; [6]", "result": 12, "unit": "mm"},
      {"measurement": "Minor Axis of breast cancer mass", "setting": "[2]; [6]", "result": 7, "unit": "mm"},
      {"measurement": "in vivo anticancer effect regarding breast cancer formed in nude mouse", "setting": "[2]", "result": "strong in vivo anticancer effect"},
      {"measurement": "anticancer effect against breast cancer formed in transformed mouse in vivo", "setting": "[3]", "result": "showed anticancer effect"},
      {"measurement": "anti-cancer effect on transformed animal model, rank order (FIG. 11)", "setting": "[3]", "result": "as an order of the next Dan-BC3, and Dan-BC2"},
      {"measurement": "formation of cancer again at second injection", "setting": "[3]", "result": "formation of cancer was derived again at the time of the second injection"},
      {"measurement": "breast cancer after one administration", "setting": "[3]", "result": "breast cancer became extinct"}
    ]},
    {"smiles": "C=CCNc1nc(NCCCC)nc(NCc2ccc(C(=O)NCCOCCOCCNC(=O)c3ccccc3)cc2)n1", "note": "[Dan-BC1]", "values": [
      {"measurement": "growth inhibition effect on cell (FIG. 1)", "setting": "[1]; 10 μM", "result": "weak growth inhibition effect on cell"},
      {"measurement": "growth inhibition effect on cell (FIG. 1)", "setting": "[1]; 50 μM", "result": "no significant growth inhibition effect on cell"},
      {"measurement": "cells survived compared with cells without administration", "setting": "[1]; 100 μM, 12 hours", "result": "about 68%"},
      {"measurement": "cells survived compared with cells without administration", "setting": "[1]; 100 μM, 24 hours", "result": "about 37%"},
      {"measurement": "cells survived compared with cells without administration", "setting": "[1]; 100 μM, 36 hours", "result": "about 27%"},
      {"measurement": "growth inhibition effect on cell (FIG. 1)", "setting": "[1]; 100 μM", "result": "an extinct effect on cell was apparent to the naked eye"},
      {"measurement": "cells survived compared with cells without administration", "setting": "[1]; 100 μM, 48 hours", "result": "all cells reached extinction"},
      {"measurement": "extinction effect on breast cancer cell in nude mouse, rank order (FIG. 7)", "setting": "[2]; 500 μM", "result": "high in case of Dan-BC1, Dan-BC3 compound, and Dan-BC2 compound in that order"},
      {"measurement": "Height of breast cancer mass", "setting": "[2]; [4]", "result": 2, "unit": "mm"},
      {"measurement": "Major Axis of breast cancer mass", "setting": "[2]; [4]", "result": 10, "unit": "mm"},
      {"measurement": "Minor Axis of breast cancer mass", "setting": "[2]; [4]", "result": 8, "unit": "mm"},
      {"measurement": "Height of breast cancer mass", "setting": "[2]; [5]", "result": 2, "unit": "mm"},
      {"measurement": "Major Axis of breast cancer mass", "setting": "[2]; [5]", "result": 4, "unit": "mm"},
      {"measurement": "Minor Axis of breast cancer mass", "setting": "[2]; [5]", "result": 2, "unit": "mm"},
      {"measurement": "Height of breast cancer mass", "setting": "[2]; [6]", "result": 5, "unit": "mm"},
      {"measurement": "Major Axis of breast cancer mass", "setting": "[2]; [6]", "result": 12, "unit": "mm"},
      {"measurement": "Minor Axis of breast cancer mass", "setting": "[2]; [6]", "result": 10, "unit": "mm"},
      {"measurement": "in vivo anticancer effect regarding breast cancer formed in nude mouse", "setting": "[2]", "result": "strong in vivo anticancer effect"},
      {"measurement": "anticancer effect against breast cancer formed in transformed mouse in vivo", "setting": "[3]", "result": "strong anticancer effect"},
      {"measurement": "anti-cancer effect on transformed animal model, rank order (FIG. 11)", "setting": "[3]", "result": "the most superior"},
      {"measurement": "breast cancer after one administration", "setting": "[3]", "result": "extinction of breast cancer was resulted even with administration of only once"}
    ]}
  ]
}
